This note sets out measurements from US20250375474A1, “COMPOSITIONS FOR THE PREVENTION AND TREATMENT OF MOISTURE-ASSOCIATED SKIN DAMAGE” (SCOTIADERM INC., priority 2022, published 2025).

The structures appear in SMILES notation.

In the experiment the test system is incontinence-associated dermatitis (IAD) lesions induced with 5% pancreatin. The experiment can be described thus: Incontinence-associated dermatitis (IAD) rabbit model, treatment of induced ear lesions. Type of experiment: in vivo. The conditions noted are these: rabbit ears; 1% clotrimazole, 1% hydrocortisone, 15% zinc oxide applied separately vs combination.
Protocol: A rabbit model of IAD was also investigated. A combination cream (DGBC) was used to assess healing of an animal model of IAD compared with three active components of the cream. Twenty-six IAD lesions were induced and each lesion was treated with the individual components and the combination cream.
Rabbits were purchased from Charles River to be used for these experiments. […] Additionally, the animals' ears were used to maximize the sample size, effectively halving the number of animals required for the project. Twenty-two female rabbits were purchased: 2 for the pilot phase and 18 for phase 2 of the project. The study was conducted, and animals were housed at the AVC Research Facility as per CCAC guidelines. The experimental treatment utilized a therapeutic cream composed of 1.0% hydrocortisone, 1.0% clotrimazole and 15.0% zinc oxide (DGBC).
Induction of IAD. 1.Sedation of rabbit: Midazolam 0.5 mg/kg intramuscularly (IM) plus buprenorphine 0.03 mg/kg IM. Animals were assessed for sedation prior to gauze application. Animals requiring further sedation were sedated with ketamine 5 mg/kg IM. 2.Cleaning of the ear: The skin of both inner ears of each animal were cleaned with a 2×2 gauze saturated with 3 ml isopropyl alcohol and allowed to air dry for 5 minutes before applying the saturated gauze. The animal were held for a period of 5 min to ensure the ear was dry prior to application of IAD induction. 3.Application of gauze with 5% pancreatin to induce IAD: both ears of the animals were irritated as follows: Sterile 2×2 gauze was used as a carrier for the irritant. The gauze was saturated with 3 ml of pancreatin. 4.Wrapping of the ear: Both ears of each animal had gauze with pancreatin applied to the medial surface. […] 5.Monitoring period of 24 h: After 24 hours the bandage and occlusive dressing was removed and the ears assessed for sufficient irritation. […] Rabbits assessed as painful 1 hour after administration of gabapentin were treated with buprenorphine 0.03 mg/kg SC and be reassessed for pain in 1 hour. […]
Consider `C[C@]12CCC(=O)C=C1CC[C@@H]1[C@@H]2[C@@H](O)C[C@@]2(C)[C@H]1CC[C@]2(O)C(=O)CO` [hydrocortisone, 11β, 17α,21-Trihydroxypregn-4-ene-3,20-dione], for which the “effect in treating IAD compared with DGBC therapeutic cream” value is “do not produce the same effect”.
For `[O]=[Zn]` [zinc oxide, Zinc oxide], the “effect in treating IAD compared with DGBC therapeutic cream” value was “do not produce the same effect”.
With `Clc1ccccc1C(c1ccccc1)(c1ccccc1)n1ccnc1` [clotrimazole, Clotrimazole] the entry was “do not produce the same effect”.
